The term ΔTm denotes the change in melting temperature against a reference sample. Broadly, the EC50 is the concentration giving half of the maximal effect. Usually Kd stands for the free concentration of one partner at which half of the binding sites on the other are occupied at equilibrium, for simple one-to-one binding. Read a low Kd as higher affinity.

For test [1], the target named is T1, Nuclear receptor subfamily 2 group E member 1 (Homo sapiens, UniProt Q9Y466). The test can be described thus: Agonist activity at in human TLX LBD expressed in human HEK293T cells coexpressing Gal4-VP 16 assessed as fold […] in reporter activity at 100 uM measured after 14 hrs by luciferase reporter gene assay relative to control. It counts as cell-based. The following applies: filed as agonist.
T1 sequence (Q9Y466 whole entry, the tested form may be a part): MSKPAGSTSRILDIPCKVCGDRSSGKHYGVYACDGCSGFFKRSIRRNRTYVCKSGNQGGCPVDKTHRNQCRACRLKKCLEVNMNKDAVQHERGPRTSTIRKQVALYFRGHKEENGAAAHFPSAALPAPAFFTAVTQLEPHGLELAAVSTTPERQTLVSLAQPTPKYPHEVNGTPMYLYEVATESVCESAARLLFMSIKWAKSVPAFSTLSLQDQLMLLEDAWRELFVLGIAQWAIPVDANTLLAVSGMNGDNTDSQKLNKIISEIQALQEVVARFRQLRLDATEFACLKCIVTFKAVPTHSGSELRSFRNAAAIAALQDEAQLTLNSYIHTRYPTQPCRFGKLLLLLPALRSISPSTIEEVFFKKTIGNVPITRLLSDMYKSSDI

Test [2] has as its target T1, Nuclear receptor subfamily 2 group E member 1. Nature of the test: Inverse agonist activity at full length TLX activating element expressed in human HEK293T cells coexpressing human full-length TLX/Gal4-VP 16 assessed as fold […] in reporter activity at 100 uM by luciferase reporter gene assay relative to control. It counts as cell-based. The conditions noted are these: filed as inverse agonist.

Test [3] shares this target. Nature of the test: Stabilization of human recombinant TLX LBD assessed as change in melting temperature at 500 uM by DSF assay.
Test [4] has the same target. Nature of the test: Agonist activity at in human TLX LBD expressed in human HEK293T cells coexpressing Gal4-VP 16 assessed as increase in reporter activity measured after 14 hrs by luciferase reporter gene assay relative to control. It counts as cell-based.
The target is the same in test [5]. Nature of the test: Agonist activity at in human TLX LBD expressed in human HEK293T cells coexpressing Gal4-VP 16 assessed as remaining activity measured after 14 hrs by luciferase reporter gene assay relative to control. It counts as cell-based. The conditions noted are these: filed as agonist. Background: A reporter such as luciferase makes a cellular process visible.

In test [6] the test system is T98G. The test can be described thus: Effect on TLX regulated gene expression in human T98G cells assessed as induction of mRNA expression at 50 uM after 8 hrs by qRT-PCR analysis. It counts as functional, cell-based. For orientation: Quantitative PCR measures a nucleic acid by following its amplification.
Test [7] relates to T98G. Nature of the test: Effect on TLX regulated gene expression in human T98G cells assessed as induction of SIRT1 mRNA expression at 50 uM after 8 hrs by qRT-PCR analysis. It counts as functional, cell-based.
Test [8] concerns T98G. The test can be described thus: Effect on TLX regulated gene expression in human T98G cells assessed as decrease in PTEN mRNA expression at 50 uM after 8 hrs by qRT-PCR analysis. It counts as functional, cell-based.
For test [9], the system named is T98G. The test can be described thus: Effect on TLX regulated gene expression in human T98G cells assessed as decrease in TET3 mRNA expression at 50 uM after 8 hrs by qRT-PCR analysis. It counts as functional, cell-based.
Test [10] relates to T98G. The test can be described thus: Cytotoxicity against human T98G cells assessed as cell viability by WST-1 assay. It counts as functional, cell-based.
For test [11], the system named is T98G. The test can be described thus: Induction of apoptosis in human T98G cells assessed as viable cells at 100 nM measured after 72 hrs by propidium iodide staining based flow cytometry. It counts as functional, cell-based. On the technique in general: Flow cytometry measures light scatter and fluorescence of single cells or particles in a stream.
Test [12] deals with T98G. The test can be described thus: Inhibition of cell migration in human T98G cells at 75 uM incubated for 24 hrs by crystal violet staining based by Boyden chamber method. It counts as functional.
The target in test [13] is T1, Nuclear receptor subfamily 2 group E member 1. The test can be described thus: Agonist activity at full length TLX activating element expressed in human HEK293T cells coexpressing human full-length TLX/Gal4-VP 16 assessed as fold increase in reporter activity at 100 uM by luciferase reporter gene assay relative to control. The following applies: filed as agonist. It counts as cell-based.

For test [14] the target is unchanged. Nature of the test: Agonist activity at TAE expressed in human HEK293T cells coexpressing human full-length TLX/Gal4-VP 16 assessed as renilla luciferase reporter activity incubated for 14 hrs by Dual-glo luciferase.
The target is the same in test [15]. The test can be described thus: Agonist activity at full length TLX activating element expressed in human HEK293T cells coexpressing human full-length TLX/Gal4-VP 16 assessed as decrease in reporter activity at 100 uM by luciferase reporter gene assay relative to control.
Test [16] can be described thus: Effect on Gal4-VP16 plasmid transfected in human HEK293T cells assessed as reporter activity incubated for 14 hrs by luciferase assay. It counts as functional, HEK-293T.
In test [17] the target is T1, Nuclear receptor subfamily 2 group E member 1.
Description: Binding affinity to TLX LBD expressed in His6-tagged Escherichia coli Rosetta assessed as binding constant measured after 300 sec at 200 mM by isothermal titration calorimetry
Test [18] has the same target. The test can be described thus: Agonist activity at human TLX LBD expressed in human HEK293T cells coexpressing Gal4-VP 16 incubated for 14 hrs at 300 uM. It counts as cell-based.
For test [19] the target is unchanged. Nature of the test: Agonist activity at human TLX LBD expressed in human HEK293T cells coexpressing Gal4-VP 16 incubated for 14 hrs at 100 uM. It counts as cell-based.
The target is the same in test [20]. The test can be described thus: Inverse agonist activity at in human TLX LBD expressed in human HEK293T cells coexpressing Gal4-VP 16 assessed as fold increase in reporter activity at 100 uM measured after 14 hrs by luciferase reporter gene assay relative to control. The conditions noted are these: filed as inverse agonist. It counts as cell-based.

Structures are written as SMILES. Activity calls are given as the source filed them. The calls are words filed in the database; no cut-off is given here.

Turning to `CNC(=O)c1cc(Cl)c(N)cc1OC`, the fold change (FC) in test [1] turned out to be 0.46; in test [2], 1.05. Further, the ΔTm in test [3] was -0.3 °C.

`CN1CC(=O)N2[C@H](c3ccc4c(c3)OCO4)c3[nH]c4ccccc4c3C[C@@H]2C1=O`: the EC50 in [4] (read-out: EC50) is 5 µM. For the same compound, the fold change (FC) in test [5] was 0.62.

Turning to `CC(C)NCC(O)COc1ccc(CC(N)=O)cc1` (racemic) [ATENOLOL], the concentration for a half-maximal effect (EC50) result in test [4] (hek293t) is on record as “Not Active”. Moreover, the result with T98G [6], in the test on T98G [7], in the test on T98G [8], with T98G [9] and in the test with T98G [11] was inactive. The result in the test on T98G [10] was Active. For the same compound, in the test on T98G [12], the “cell migration inhibition (active/not active call)” value was “inactive”.

For the compound `c1ccc2c3c([nH]c2c1)CNCC3` [TRYPTOLINE], the fold change (FC) in [1] amounted to 0.47; in test [2], 2.2; in test [5], 0.4; in test [13] it was 2.15. The ΔTm in test [3] (filed as agonist) is 1.2 °C. Besides, the EC50 in test [4] (read-out: EC50) is 74 µM; in [14], > 100 µM.

As for `CC(C)NCC(O)COc1cccc2ccccc12` (racemic) [PROPRANOLOL], the EC50 was 32 µM in test [4] (read-out: EC50), 32 µM in test [15] and 37 µM in [14]. For the same compound, in test [5], the fold change (FC) amounted to 0.08. Also, the Activity in [16] came out at 8%. Also, the result in the test on T98G [6], in the test on T98G [7], with T98G [8], in the test on T98G [9] and in the test on T98G [10] was Active. In addition, the result in the test with T98G [11] was inactive. In addition, the “cell migration inhibition (active/not active call)” value with T98G [12] is “Active”. In test [17], this compound registered a Kd of 0.5 µM.

For the compound `CC(C)N(C)CC(O)COc1cccc2ccccc12` (centres undefined), the concentration for a half-maximal effect (EC50) in test [4] (read-out: EC50) is > 100 µM.

Regarding `CCCCOc1cc(C(=O)NC)c2ccccc2n1`, the fold change (FC) in test [1] worked out at 32; in test [13], 0.68. For the same compound, the thermal shift (ΔTm) in test [3] stood at 1.1 °C.

In the case of `O=C1Nc2ccccc2Nc2ccccc21`, the figures for the fold change (FC) in test [1] and in test [2] were 0.47 and 1.12, respectively. Besides, in [3], the ΔTm was 0.6 °C.

Regarding `CC(=O)N1CCN(c2ccc(O)cc2)CC1`, the fold change (FC) worked out at 0.5 in [1] and 0.86 in [13]. For the same compound, in [3], the ΔTm was 0.8 °C.

Regarding `CC(C)NCCCOc1cccc2ccccc12`, the EC50 in test [4] (read-out: EC50) is 50 µM. The fold change (FC) in test [5] was 0.42.

Consider `CCCNCC(O)COc1ccccc1C(=O)CCc1ccccc1` (racemic) [PROPAFENONE], for which the half-maximal effective concentration (EC50) in test [4] (read-out: EC50) turned out to be 47 µM. For the same compound, the fold change (FC) in test [5] stood at 0.2.

Consider `O=C(O)CCCc1ccc(-c2ccccc2)cc1`, for which the results for the fold change (FC) in test [1] and in [13] were 0.34 and 0.41, respectively. In addition, the ΔTm in test [3] is -1.4 °C.

In the case of `CC(C)NC[C@@H](O)COc1cccc2ccccc12` [DEXPROPRANOLOL], in [4] (read-out: EC50), the concentration giving a half-maximal response (EC50) amounted to 40 µM. Also, in test [5], the fold change (FC) turned out to be 0.4.

Take `CC(C)NCC(O)COc1ccnc2ccccc12` (centres undefined): the result with T98G [10] was Active. Further, the result (with T98G [11]; in test [18]) was inactive. Further, the “cell migration inhibition (active/not active call)” value in the test with T98G [12] is “inactive”.

On to `NCC(O)COc1cccc2ccccc12` (centres undefined), for which the fold change (FC) was found to be 0.27 in [1], 2.3 in test [2] and 0.07 in test [5]. In addition, the ΔTm in test [3] (filed as agonist) was determined as 1.5 °C. The concentration giving a half-maximal response (EC50) was found to be 19.4 µM in test [4] (read-out: EC50) and 43 µM in test [14].

As to `NC1CCc2[nH]c3ccccc3c2C1` (centres undefined), the fold change (FC) amounted to 0.45 in test [1], 2.1 in [2], 0.5 in test [5] and 1.98 in test [13]. The thermal shift (ΔTm) in test [3] (filed as agonist) worked out at 2.4 °C. Moreover, the 50% effective concentration (EC50) was 67 µM in test [4] (read-out: EC50) and > 100 µM in test [14].

Consider `OC(COc1cccc2ccccc12)CN1CCCCC1` (centres undefined), for which, in test [19], the outcome was inactive.

As to `CC(C)NC[C@H](O)COc1cccc2ccccc12` [LEVOPROPRANOLOL], the concentration for a half-maximal effect (EC50) in [4] (read-out: EC50) was found to be 72 µM. Also, in [5], the fold change (FC) worked out at 0.25.

Regarding `Nc1cnc2ccccc2n1`, the fold change (FC) in test [1] was found to be 2.9; in [2], 1.8. The ΔTm in test [3] (filed as modulator) was found to be 1.2 °C.

Consider `COC(CNC(C)C)COc1cccc2ccccc12` (centres undefined), for which the half-maximal effective concentration (EC50) in [4] (read-out: EC50) was 52 µM. The fold change (FC) in test [5] turned out to be 0.28.

In the case of `Clc1ccc(C(c2ccccc2)N2CCNCC2)cc1` (centres undefined), the figures for the fold change (FC) in test [1] and in test [13] were 0.37 and 0.57, respectively. For the same compound, in test [3], the ΔTm was -2.3 °C.

With `Cn1c(=O)[nH]c2[nH]cnc2c1=O`, the fold change (FC) in [2] is 1.47; in test [20], 3.3. In addition, the ΔTm in [3] (filed as modulator) came out at 1.1 °C.

`COc1ccc2[nH]c(SC)nc2c1`: the results for the fold change (FC) in [1], in test [2] and in test [20] were 2.7, 1.33 and 2.7, respectively. Further, the thermal shift (ΔTm) in test [3] (filed as modulator) worked out at 0.5 °C.

For the compound `O=c1[nH]nc(Cc2ccccc2)c2ccccc12`, the figures for the fold change (FC) in test [1] and in test [13] were 0.17 and 0.57, respectively. In addition, the ΔTm in [3] is -0.5 °C.

Consider `CC(C)OCC(O)COc1cccc2ccccc12` (centres undefined), for which, in test [4] (read-out: EC50), the EC50 is 83 µM. Also, the fold change (FC) in test [5] amounted to 0.29.

`Cc1cn(-c2cc(N)cc(C(F)(F)F)c2)cn1`: the results for the fold change (FC) in test [1] and in [13] were 0.44 and 0.65, respectively. Further, the ΔTm in test [3] was -3.2 °C.

As for `CC(C)NCC(O)c1ccc(NS(C)(=O)=O)cc1` (racemic) [SOTALOL], the EC50 entry in [4] (hek293t) is listed as “Not Active”. For the same compound, the outcome in the test with T98G [10] was Active. Besides, the result in the test with T98G [11] was inactive. In addition, in the test with T98G [12], the “cell migration inhibition (active/not active call)” value is “inactive”.

The values are drawn from ChEMBL document CHEMBL5032503 (J Med Chem, 2021).
